Laboratory results published in patent US4925877A, “Physiologically active erbstatin analogue compounds and compositions” (Zaidanhojin Biseibutsu Kagaku Kenkyukai, priority 1986, dated 1990).
In brackets after ≈: the same amount, converted by molar mass. Like-named read-outs stand apart in the source and are kept apart here.

Assays:
Psudomonas aeruginosa A3 = assay: Antimicrobial activity, MIC by agar dilution method (Psudomonas aeruginosa A3); assay type: cell-based; settings: read-out: MIC (Psudomonas aeruginosa A3)
Experimental: (§1) The minimum growth inhibition concentration (MIC) of the compounds of the present invention against various bacteria was measured by means of an agar dilution method using Muller-Hinton medium, which is shown in the following Table.

[1] = tested on: Staphylococcus aureus Smith; assay: Antimicrobial activity, MIC by agar dilution method (Staphylococcus aureus Smith); assay type: cell-based; settings: read-out: MIC (Staphylococcus aureus Smith)
Experimental: as §1

L 1210 leukemia cells = assay: Growth inhibition activity against cultured carcinoma cells (L 1210 leukemia cells); assay type: cell-based; settings: Mus musculus, L1210, 72 h, read-out: L 1210 IC50 (50%-inhibition concentration against growth)
Experimental: (B) Growth inhibition activity against cultured carcinoma cells:
After the incubation, the number of the cells was counted and the activity was evaluated.

[2] = target: T1, tyrosine-specific protein-kinase (epidermal growth factor receptor-kinase, A-431 membrane fraction) (Homo sapiens, UniProt P00533); assay: TPK-I activity (inhibition of tyrosine-specific protein-kinase / epidermal growth factor receptor-kinase, 32P-ATP, A-431 membrane fraction); assay type: biochemical
T1 construct: a membrane fraction of human epidermal carcinoma cells A-431 was used; endogenous in cells; host or cells: A-431 human epidermal carcinoma cells, membrane fraction
Experimental: 50 μl of the reaction mixture was sampled and absorbed to Wattman No. 3MM filter membrane and dipped in an ice-cooled TCA. After kept for 30 minutes, the filter membrane was taken out and washed out TCA, ethanol and ether, and the count of ^32 P as stuck to the said filter membrane was measured (a). The same reaction and treatment were carried out, where the test substance only was excluded, and the count of ^32 P on the filter was measured in the same manner (b). Further, the values as measured in the cases where the membrane fraction was excluded were (a') and (b'), respectively. Thus, the percentage of the inhibition of the epiderman growth factor receptor-kinase was calculated from the formula of […].
The TPK-I activity of typical compounds of the present invention was extremely high at a low concentration, as shown in the following Table.

cultured carcinoma cells = settings: MH435-A, earlier application; cited from earlier work
various bacteria = settings: MH435-A, earlier application; cited from earlier work
[3] = target: T1, tyrosine-specific protein-kinase (epidermal growth factor receptor-kinase, A-431 membrane fraction); settings: MH435-A, earlier application; cited from earlier work
[4] = agar dilution method, Muller-Hinton medium
[5] = L 1210 leukemia cells, 3 days, 37° C., 5% CO2
[6] = A-431 membrane fraction, EGF, histone, pH 7.4, 0° C., 30 minutes, read-out: TPK-I IC50 (converted)

T1 sequence (P00533 25-1210): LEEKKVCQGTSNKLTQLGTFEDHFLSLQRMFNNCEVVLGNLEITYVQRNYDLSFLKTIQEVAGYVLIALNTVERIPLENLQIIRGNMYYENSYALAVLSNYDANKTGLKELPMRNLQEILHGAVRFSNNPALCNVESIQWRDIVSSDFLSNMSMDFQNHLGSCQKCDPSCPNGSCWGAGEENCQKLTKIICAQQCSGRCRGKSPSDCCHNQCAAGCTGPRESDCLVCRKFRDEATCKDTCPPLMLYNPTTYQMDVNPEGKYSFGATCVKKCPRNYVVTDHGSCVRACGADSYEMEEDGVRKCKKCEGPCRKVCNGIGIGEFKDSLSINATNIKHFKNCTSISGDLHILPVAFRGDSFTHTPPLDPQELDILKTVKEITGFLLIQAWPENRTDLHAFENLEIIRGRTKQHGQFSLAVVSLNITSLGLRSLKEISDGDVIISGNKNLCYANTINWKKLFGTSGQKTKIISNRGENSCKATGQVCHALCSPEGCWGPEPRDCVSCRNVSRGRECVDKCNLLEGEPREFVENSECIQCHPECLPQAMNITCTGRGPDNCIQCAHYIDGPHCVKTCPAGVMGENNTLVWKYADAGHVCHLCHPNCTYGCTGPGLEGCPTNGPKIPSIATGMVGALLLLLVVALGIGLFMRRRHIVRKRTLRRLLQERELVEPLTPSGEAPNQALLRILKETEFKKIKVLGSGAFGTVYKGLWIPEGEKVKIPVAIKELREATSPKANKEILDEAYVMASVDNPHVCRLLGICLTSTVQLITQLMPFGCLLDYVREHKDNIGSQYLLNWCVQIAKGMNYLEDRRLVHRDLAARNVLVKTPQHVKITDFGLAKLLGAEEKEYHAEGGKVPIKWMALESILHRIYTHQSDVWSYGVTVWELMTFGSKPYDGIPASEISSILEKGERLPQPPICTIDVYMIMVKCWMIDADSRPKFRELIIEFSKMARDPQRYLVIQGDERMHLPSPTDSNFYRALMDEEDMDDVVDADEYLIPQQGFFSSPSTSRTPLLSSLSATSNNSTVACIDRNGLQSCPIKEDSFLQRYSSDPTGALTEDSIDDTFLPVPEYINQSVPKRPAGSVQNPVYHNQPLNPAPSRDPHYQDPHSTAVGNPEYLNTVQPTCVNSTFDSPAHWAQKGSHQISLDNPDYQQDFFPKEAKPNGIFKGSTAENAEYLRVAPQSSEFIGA

SMILES	MIC (Psudomonas aeruginosa A3; [4]) [µg/mL]	MIC [1, 4] [µg/mL]	IC50 (L 1210 leukemia cells; [5]) [µg/mL]	IC50 [2, 6] [µM]	further results
[C-]#[N+]C=Cc1cc(OC)ccc1OC [Compound 3, 2-(2,5-dimethoxyphenyl)vinylisocyanide]	–	–	–	–	MIC (Psudomonas aeruginosa A3): 25 µg/mL (≈ 132 µM); MIC [1]: 3.12 µg/mL (≈ 16.5 µM); IC50 (L 1210 leukemia cells): 0.65 µg/mL (≈ 3.44 µM); IC50 [2]: > 52.9 µM
O=CNC=Cc1cccc(O)c1O [Compound 13, (2-formamidovinyl)-2,3-dihydroxybenzene]	100 (≈ 558 µM)	100 (≈ 558 µM)	2.2 (≈ 12.3 µM)	1.67	–
O=CNC=Cc1ccc(O)c(O)c1 [Compound 14, (2-formamidovinyl)-3,4-dihydroxybenzene]	25 (≈ 140 µM)	> 50	22 (≈ 123 µM)	7.26	–
O=CNC=Cc1cc(O)ccc1O [MH435-A]	–	–	–	–	antitumor activity (in words) (cultured carcinoma cells): antitumor activity; antimicrobial activity (in words) (various bacteria): has antimicrobial activity; inhibition of tyrosine-specific protein-kinase activity (in words) [3]: can inhibit the said protein-kinase activity in a low concentration
CC(=O)NC=Cc1cc(O)ccc1O [Compound 18, (2-acetamidovinyl)-2,5-dihydroxybenzene]	–	–	3 (≈ 15.5 µM)	15.5	–
[C-]#[N+]C=Cc1cc(Br)ccc1O [Compound 2, 2-(5-bromo-2-hydroxyphenyl)vinylisocyanide]	12.5 (≈ 55.8 µM)	6.25 (≈ 27.9 µM)	0.25 (≈ 1.12 µM)	> 28.6	–

Now from value to compound, other results behind:

MIC (Psudomonas aeruginosa A3; [4]) [µg/mL]	MIC [1, 4] [µg/mL]	IC50 (L 1210 leukemia cells; [5]) [µg/mL]	IC50 [2, 6] [µM]	SMILES	further results
> 50	100 (≈ 413 µM)	12 (≈ 49.6 µM)	> 26.4	O=CNC=Cc1cc(Br)ccc1O [Compound 9, (2-formamidovinyl)-5-bromo-2-hydroxybenzene]	–
> 100	> 100	62 (≈ 299 µM)	> 145	COc1ccc(OC)c(C=CNC=O)c1 [Compound 10, (2-formamidovinyl)-2,5-dimethoxybenzene]	–
> 50	> 100	23 (≈ 119 µM)	> 33.1	COc1ccc(O)c(C=CNC=O)c1 [Compound 11, (2-formamidovinyl)-2-hydroxy-5methoxybenzene]	–
> 50	> 100	30 (≈ 184 µM)	–	O=CNC=Cc1ccccc1O [Compound 12, (2-formamidovinyl)-2-hydroxybenzene]	–
